In the CheMixHub viscosity set:

Experiment: xn = mol fraction of the nth substance listed
Details: 100 kPa

CS(=O)(=O)O + O
viscosity [mPa·s]
Details	293.15 K	298.15 K	303.15 K	308.15 K	313.15 K	318.15 K
x1 = 0.003409	1.037	0.9229	0.827	0.7471	–	–
x1 = 0.004307	1.042	0.9279	0.833	–	–	–
x1 = 0.005194	1.051	0.9391	0.8431	–	–	–
x1 = 0.006086	1.064	0.9475	0.8496	–	–	–
x1 = 0.006979	1.073	0.9565	0.8598	–	–	–
x1 = 0.007862	1.08	0.964	0.866	–	–	–
x1 = 0.008752	1.088	0.972	0.873	–	–	–
x1 = 0.0177	1.173	1.048	0.9423	0.8535	0.7777	0.713
x1 = 0.02629	1.264	1.131	1.02	0.9254	0.8437	0.7737
x1 = 0.03475	1.351	1.211	1.094	0.9939	0.9081	0.834
x1 = 0.04308	1.441	1.293	1.169	1.064	0.9738	0.8939
x1 = 0.05122	1.523	1.368	1.237	1.126	1.031	0.948
x1 = 0.05919	1.609	1.448	1.311	1.193	1.094	1.007
x1 = 0.06721	1.728	1.556	1.41	1.285	1.176	1.083
x1 = 0.07493	1.826	1.647	1.493	1.361	1.247	1.148
x1 = 0.08256	1.934	1.745	1.583	1.444	1.323	1.218
x1 = 0.09015	2.046	1.847	1.676	1.529	1.402	1.291
x1 = 0.09748	2.16	1.95	1.769	1.615	1.48	1.363
x1 = 0.1048	2.299	2.076	1.885	1.719	1.576	1.452
x1 = 0.112	2.411	2.177	1.977	1.803	1.652	1.519
